This passage reports IC50 results from ChEMBL document CHEMBL3124795, “Synthesis and antiproliferative evaluation of 13-aryl-13H-benzo[g]benzothiazolo [2,3-b]quinazoline-5,14-diones” (Bioorg Med Chem Lett, 2014).

Assay [1] deals with HEK293. In words: Antiproliferative activity against human HEK293 cells after 48 hrs by MTT assay. The class given is cell-based. The settings on record: HEK293, 48 h. On the technique in general: Tetrazolium assays rely on reduction of a dye to a coloured formazan, in cell work by metabolically active cells.
Assay [2] concerns HeLa. The experiment in a line: Antiproliferative activity against human HeLa cells after 48 hrs by MTT assay. The assay is classed as functional, cell-based.
Assay [3] deals with HepG2. The experiment in a line: Antiproliferative activity against human HepG2 cells after 48 hrs by MTT assay. The assay is classed as functional, cell-based. The conditions noted are these: HepG2, 48 h.

Usually IC50 stands for the midpoint of a concentration-inhibition curve. A higher IC50 goes with lower potency. As for `O=C1C2=C(C(=O)c3ccccc31)C(c1ccccc1)N1C(=N2)Sc2ccccc21` (configuration not stated), the IC50 in assay [1] is 4.16 µM; in assay [2] it was 2.99 µM; in assay [3] it was 1.66 µM.

Consider `O=C1C2=C(C(=O)c3ccccc31)C(c1ccc(F)cc1)N1C(=N2)Sc2ccccc21` (configuration not stated), for which the IC50 in assay [1] worked out at 15.1 µM; in assay [2], 3.96 µM; in assay [3] it was 9.4 µM.

Take `Cc1ccc(C2C3=C(N=C4Sc5ccccc5N42)C(=O)c2ccccc2C3=O)cc1` (configuration not stated): the IC50 was found to be 5.18 µM in assay [1], 3.81 µM in assay [2] and 1.7 µM in assay [3].

As to `COc1ccc(OC)c(C2C3=C(N=C4Sc5ccccc5N42)C(=O)c2ccccc2C3=O)c1` (configuration not stated), the figures for the IC50 in assay [1], in assay [2] and in assay [3] were greater than 200 µM, 125 µM and 190 µM, respectively.

Take `COc1cc(C2C3=C(N=C4Sc5ccccc5N42)C(=O)c2ccccc2C3=O)cc(OC)c1OC` (configuration not stated): the IC50 stood at 11 µM in assay [1], 9.32 µM in assay [2] and 5.03 µM in assay [3].

`O=C1C2=C(C(=O)c3ccccc31)C(c1ccc([N+](=O)[O-])cc1)N1C(=N2)Sc2ccccc21` (configuration not stated): the IC50 came out at 50.3 µM in assay [1], 29 µM in assay [2] and 14.3 µM in assay [3].

Take `O=C1C2=C(C(=O)c3ccccc31)C(c1ccc(Cl)cc1Cl)N1C(=N2)Sc2ccccc21` (configuration not stated): the IC50 in assay [1] amounted to 4.9 µM; in assay [2], 2.68 µM; in assay [3] it was 3.56 µM.

`O=C1C2=C(C(=O)c3ccccc31)C(c1ccc(Cl)cc1)N1C(=N2)Sc2ccccc21` (configuration not stated): the IC50 in assay [1] amounted to 25.9 µM; in assay [2], 15.6 µM; in assay [3], 23.4 µM.

As to `O=C1C2=C(C(=O)c3ccccc31)C(c1ccco1)N1C(=N2)Sc2ccccc21` (configuration not stated), the IC50 came out at 10.1 µM in assay [1], 6.62 µM in assay [2] and 9.07 µM in assay [3].

Turning to `O=C1C2=C(C(=O)c3ccccc31)C(c1cccs1)N1C(=N2)Sc2ccccc21` (configuration not stated), the figures for the IC50 in assay [1], in assay [2] and in assay [3] were 5.9 µM, 4.23 µM and 5.76 µM, respectively.

On to `COc1cccc2c1C(=O)c1c(O)c3c(c(O)c1C2=O)C[C@@](O)(C(=O)CO)C[C@@H]3O[C@H]1C[C@H](N)[C@H](O)[C@H](C)O1` [DOXORUBICIN], for which the IC50 in assay [1] came to 1.06 µM; in assay [3], 1.15 µM.
